The target in experiment [1] is T1, Eukaryotic translation initiation factor 2-alpha kinase 3 (Homo sapiens, UniProt Q9NZJ5).
T1 sequence (Q9NZJ5 whole entry): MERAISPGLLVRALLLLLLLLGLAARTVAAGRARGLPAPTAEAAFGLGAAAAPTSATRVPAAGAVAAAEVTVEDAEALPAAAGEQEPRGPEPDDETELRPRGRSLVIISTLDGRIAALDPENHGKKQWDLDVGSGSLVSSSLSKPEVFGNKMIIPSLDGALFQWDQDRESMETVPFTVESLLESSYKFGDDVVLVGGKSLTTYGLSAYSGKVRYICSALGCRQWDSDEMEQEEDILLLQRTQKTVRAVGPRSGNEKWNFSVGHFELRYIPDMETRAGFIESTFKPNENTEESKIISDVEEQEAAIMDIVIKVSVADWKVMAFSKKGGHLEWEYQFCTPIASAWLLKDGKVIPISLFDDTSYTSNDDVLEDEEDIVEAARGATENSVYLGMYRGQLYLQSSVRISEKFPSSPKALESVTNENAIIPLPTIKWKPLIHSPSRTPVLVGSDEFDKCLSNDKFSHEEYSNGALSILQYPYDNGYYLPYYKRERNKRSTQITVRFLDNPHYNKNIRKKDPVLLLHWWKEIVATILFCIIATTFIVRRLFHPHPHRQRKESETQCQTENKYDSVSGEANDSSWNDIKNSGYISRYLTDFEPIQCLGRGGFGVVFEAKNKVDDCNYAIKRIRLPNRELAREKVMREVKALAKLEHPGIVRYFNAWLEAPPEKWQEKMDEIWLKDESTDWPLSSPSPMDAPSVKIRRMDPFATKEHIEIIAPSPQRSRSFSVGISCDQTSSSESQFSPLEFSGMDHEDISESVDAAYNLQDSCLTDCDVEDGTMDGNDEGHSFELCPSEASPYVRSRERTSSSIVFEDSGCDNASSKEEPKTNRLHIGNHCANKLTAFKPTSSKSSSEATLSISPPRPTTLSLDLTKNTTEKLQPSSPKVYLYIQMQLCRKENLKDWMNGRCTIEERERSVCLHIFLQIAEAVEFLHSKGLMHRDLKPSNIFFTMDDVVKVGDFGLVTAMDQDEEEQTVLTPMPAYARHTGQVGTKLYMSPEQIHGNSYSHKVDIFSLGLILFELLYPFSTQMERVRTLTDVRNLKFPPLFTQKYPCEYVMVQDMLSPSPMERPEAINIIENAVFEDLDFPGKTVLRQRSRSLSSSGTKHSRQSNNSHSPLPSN
Kind of experiment: Dose response cell-based high-throughput screening assay to measure PERK inhibition. [Related pubchem assays: 1416 ]. Type of experiment: functional.

Experiment [2] deals with T1, Eukaryotic translation initiation factor 2-alpha kinase 3. Kind of experiment: Counterscreen assay for PERK inhibitors: Dose response cell-based high throughput screening assay to measure inhibition of PERK at 6 hours. [Related pubchem assays: 1522, 1416 ]. Type of experiment: functional. (Counterscreens check selectivity or assay interference.)
In experiment [3] the target is Eukaryotic translation initiation factor 4H (Homo sapiens, UniProt Q15056). The experiment is described as follows: eIF4H binding inhibition – biochemical, uHTS, fluorescence polarization, translation initiation inhibitor project, primary screen (AID 2012). In general terms: In fluorescence polarisation assays a small probe gives low polarisation when free and higher when bound to something large.

In experiment [4] the target is Polyadenylate-binding protein 1 (Homo sapiens, UniProt P11940). The experiment is described as follows: blockers of PABP interaction with poly(A) – biochemical, fluorescence polarization, […] (AID 2014).
Another experiment deals with Paired box protein Pax-8 (Homo sapiens, UniProt Q06710). The experiment is described as follows: PAX8 transcriptional activity inhibition in RMG-I – RMG-I cells, luciferase, cherry-pick, dose response (AID 687027).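 Also: luciferase reporter driven by Pax8 target thyroperoxidase promoter measured by SteadyGlo luminescence.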 Type of experiment: functional, cell-based.
A short description of experiment [5]: Luminescence Cell-Based Dose Confirmation HTS to Identify Activators of 5'UTR Stem-Loop Driven Alpha-Synuclein mRNA Translation in H4 Neuroglioblastoma Cells. [Related pubchem assays: 1829 (Project Summary), 1814 (Primary HTS)]. It counts as functional.
Experiment [6] is described as follows: Luminescence Cell-Based Dose Response HTS to Identify Activators of Luciferase Translation or Activity in H4 […] Cells. [Related pubchem assays: 1829 (Project Summary), 1814 (Primary HTS)]. Type of experiment: functional.
In the next experiment the test system is H4. The experiment is described as follows: Luminescence Cell-Based Dose Response HTS to Identify Activators of 5'UTR Stem-Loop Driven Prion Protein mRNA Translation in H4 Neuroglioblastoma Cells. [Related pubchem assays: 1829 (Project Summary), 1814 (Primary HTS)]. It counts as functional. To be noted: Homo sapiens.
In experiment [7] the target is DNA dC->dU-editing enzyme APOBEC-3G (Homo sapiens, UniProt Q9HC16). The experiment is described as follows: Dose Response confirmation of small molecule APOBEC3G DNA Deaminase Inhibitors via a fluorescence-based single-stranded DNA deaminase assay. [Related pubchem assays (depositor defined):AID493012, AID493028]. It counts as functional.
In a further experiment the target is X-box-binding protein 1 (Homo sapiens, UniProt P17861). Type of experiment: functional, Cricetulus griseus.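 Also: confirmatory dose-response counter-screen serving a CHOP assay.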
Experiment [8] deals with Voltage-dependent T-type calcium channel subunit alpha-1H (Homo sapiens, UniProt O95180). It counts as functional.
For another experiment, the system named is HeLa. The experiment is described as follows: viability loss in HeLa cells – cell-based, 24 h, cherry-picked samples, cytotoxicity control, dose response (AID 504726).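 Also: potency for cytotoxicity as loss of luminescence signal.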 Type of experiment: functional. To be noted: Homo sapiens.
The target of experiment [9] is T2, Endoribonuclease toxin MazF (Escherichia coli K-12, UniProt P0AE70).
T2 sequence (P0AE70 whole entry): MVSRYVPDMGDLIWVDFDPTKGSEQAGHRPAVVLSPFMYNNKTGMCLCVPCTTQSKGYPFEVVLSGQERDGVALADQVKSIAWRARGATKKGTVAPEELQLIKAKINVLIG
Kind of experiment: activation of MazEF endoribonuclease cleavage – biochemical, fluorescence, single-stranded RNA substrate, uHTS hits, dose response (AID 588481). Type of experiment: functional.

For experiment [10], the target named is T2, Endoribonuclease toxin MazF. The experiment is described as follows: substrate-only fluorescence increase artefacts – biochemical, single-stranded RNase substrate, counter-screen for MazEF activator project, dose response (AID 588502). Type of experiment: functional.
Experiment [11] has as its target T3, Oxysterols receptor LXR-beta (Homo sapiens, UniProt P55055).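 Also: agonist activity at LXR measured by a cell-based luminescence readout across a dose range, run as a counterscreen for daf-12 agonists; HEK293 cells with Gal4-LXR fusion and GAL4-driven luciferase reporter; potency for activation of Gal4-LXR reporter so compounds are agonists.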
T3 sequence (P55055 whole entry): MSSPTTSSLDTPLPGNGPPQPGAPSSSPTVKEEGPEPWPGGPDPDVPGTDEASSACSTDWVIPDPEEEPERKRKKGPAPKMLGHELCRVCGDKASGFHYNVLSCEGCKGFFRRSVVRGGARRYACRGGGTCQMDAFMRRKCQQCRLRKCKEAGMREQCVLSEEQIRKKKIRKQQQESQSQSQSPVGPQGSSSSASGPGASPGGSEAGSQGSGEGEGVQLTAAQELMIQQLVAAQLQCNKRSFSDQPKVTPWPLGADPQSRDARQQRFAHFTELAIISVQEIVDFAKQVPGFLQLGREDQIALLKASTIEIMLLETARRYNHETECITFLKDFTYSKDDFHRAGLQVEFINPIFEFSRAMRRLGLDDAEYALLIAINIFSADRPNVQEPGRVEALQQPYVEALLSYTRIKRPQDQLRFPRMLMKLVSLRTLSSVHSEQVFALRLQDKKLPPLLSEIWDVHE
It counts as functional, cell-based.

Experiment [12] concerns the target T4, Tyrosine-protein phosphatase non-receptor type 7 (Homo sapiens, UniProt P35236).
T4 sequence (P35236 whole entry): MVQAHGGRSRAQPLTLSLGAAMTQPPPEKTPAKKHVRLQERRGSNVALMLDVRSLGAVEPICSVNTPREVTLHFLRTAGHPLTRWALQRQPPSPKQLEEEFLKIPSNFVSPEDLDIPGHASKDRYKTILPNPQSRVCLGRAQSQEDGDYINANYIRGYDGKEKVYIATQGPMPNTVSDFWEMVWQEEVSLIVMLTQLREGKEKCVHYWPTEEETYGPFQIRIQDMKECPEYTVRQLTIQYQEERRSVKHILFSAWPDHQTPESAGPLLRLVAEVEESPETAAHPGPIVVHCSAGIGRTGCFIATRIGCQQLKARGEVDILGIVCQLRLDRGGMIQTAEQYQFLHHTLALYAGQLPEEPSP
Type of experiment: functional.

The target of experiment [13] is Glyceraldehyde-3-phosphate dehydrogenase (Homo sapiens, UniProt P04406).
Experiment [14] concerns the target Heat shock cognate 71 kDa protein (Homo sapiens, UniProt P11142). Kind of experiment: In Vitro Hsc70 Dose Response Fluorescence Polarization Assay. [Related pubchem assays: 1072 ].
Experiment [15] addresses Heat shock 70 kDa protein 1A (Homo sapiens, UniProt P0DMV8). Kind of experiment: inhibition of Hsp70 binding activity – biochemical, fluorescence polarization, SAR follow-up (AID 1072).
Experiment [16] addresses T5, Dual specificity protein phosphatase 6 (Rattus norvegicus, UniProt Q64346).
T5 sequence (Q64346 whole entry): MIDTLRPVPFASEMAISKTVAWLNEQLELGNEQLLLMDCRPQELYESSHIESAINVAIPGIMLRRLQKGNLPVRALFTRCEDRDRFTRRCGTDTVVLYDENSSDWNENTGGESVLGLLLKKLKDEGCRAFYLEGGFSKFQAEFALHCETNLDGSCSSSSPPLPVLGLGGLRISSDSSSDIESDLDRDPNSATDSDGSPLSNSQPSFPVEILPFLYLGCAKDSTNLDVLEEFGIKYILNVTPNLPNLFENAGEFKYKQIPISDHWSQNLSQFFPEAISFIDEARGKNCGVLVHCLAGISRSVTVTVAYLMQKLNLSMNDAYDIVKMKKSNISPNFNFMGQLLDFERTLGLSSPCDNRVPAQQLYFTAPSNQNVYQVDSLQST

The target in experiment [17] is T5, Dual specificity protein phosphatase 6. It counts as functional.
The next experiment has as its target Beta-galactosidase (Escherichia coli, UniProt Q8VNN2). Kind of experiment: detection-enzyme interference by beta-gal modulators – biochemical, E. coli enzyme, set 3, artefact control for CCR6 antagonist project, dose response (AID 504712). It counts as functional.
A further experiment is described as follows: cells. Type of experiment: functional, cell-based.

The structures appear in SMILES notation. Activity calls are given as the source filed them.

DNA dC->dU-editing enzyme APOBEC-3G, sequence (Q9HC16 whole entry): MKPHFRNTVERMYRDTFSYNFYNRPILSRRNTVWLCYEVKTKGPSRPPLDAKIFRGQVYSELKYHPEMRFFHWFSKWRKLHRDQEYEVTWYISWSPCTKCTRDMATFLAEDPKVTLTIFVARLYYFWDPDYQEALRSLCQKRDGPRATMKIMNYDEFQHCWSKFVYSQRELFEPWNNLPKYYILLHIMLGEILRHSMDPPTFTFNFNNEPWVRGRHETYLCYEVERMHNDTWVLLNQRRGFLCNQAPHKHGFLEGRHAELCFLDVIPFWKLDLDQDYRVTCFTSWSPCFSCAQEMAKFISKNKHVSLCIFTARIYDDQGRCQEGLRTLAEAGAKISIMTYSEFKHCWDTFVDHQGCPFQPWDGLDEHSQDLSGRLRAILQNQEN
Heat shock 70 kDa protein 1A, sequence (P0DMV8 whole entry): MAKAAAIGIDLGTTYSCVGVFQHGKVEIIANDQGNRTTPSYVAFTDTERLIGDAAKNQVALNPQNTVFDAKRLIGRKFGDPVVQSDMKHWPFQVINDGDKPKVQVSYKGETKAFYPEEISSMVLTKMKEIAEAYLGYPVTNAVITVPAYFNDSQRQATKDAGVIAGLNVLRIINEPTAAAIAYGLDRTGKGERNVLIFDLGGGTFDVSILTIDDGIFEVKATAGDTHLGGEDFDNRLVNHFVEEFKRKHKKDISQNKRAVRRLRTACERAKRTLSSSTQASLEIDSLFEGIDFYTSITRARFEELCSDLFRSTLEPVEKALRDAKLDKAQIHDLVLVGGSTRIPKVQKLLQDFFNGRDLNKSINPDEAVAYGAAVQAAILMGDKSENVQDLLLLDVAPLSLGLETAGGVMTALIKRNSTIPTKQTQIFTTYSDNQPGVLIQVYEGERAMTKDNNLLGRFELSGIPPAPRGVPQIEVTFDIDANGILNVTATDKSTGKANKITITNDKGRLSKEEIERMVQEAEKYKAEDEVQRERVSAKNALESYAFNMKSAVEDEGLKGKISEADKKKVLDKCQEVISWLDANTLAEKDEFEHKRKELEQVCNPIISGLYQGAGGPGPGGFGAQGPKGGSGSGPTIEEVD
Glyceraldehyde-3-phosphate dehydrogenase, sequence (P04406 whole entry): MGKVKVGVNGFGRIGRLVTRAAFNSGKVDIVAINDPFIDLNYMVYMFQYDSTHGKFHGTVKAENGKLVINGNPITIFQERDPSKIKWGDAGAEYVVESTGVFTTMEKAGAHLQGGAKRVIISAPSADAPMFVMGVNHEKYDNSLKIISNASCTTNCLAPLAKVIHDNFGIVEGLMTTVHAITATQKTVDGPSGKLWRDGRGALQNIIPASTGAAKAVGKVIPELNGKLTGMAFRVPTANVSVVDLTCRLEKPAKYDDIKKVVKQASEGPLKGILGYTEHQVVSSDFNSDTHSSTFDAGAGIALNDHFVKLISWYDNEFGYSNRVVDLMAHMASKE
Voltage-dependent T-type calcium channel subunit alpha-1H, sequence (O95180 whole entry): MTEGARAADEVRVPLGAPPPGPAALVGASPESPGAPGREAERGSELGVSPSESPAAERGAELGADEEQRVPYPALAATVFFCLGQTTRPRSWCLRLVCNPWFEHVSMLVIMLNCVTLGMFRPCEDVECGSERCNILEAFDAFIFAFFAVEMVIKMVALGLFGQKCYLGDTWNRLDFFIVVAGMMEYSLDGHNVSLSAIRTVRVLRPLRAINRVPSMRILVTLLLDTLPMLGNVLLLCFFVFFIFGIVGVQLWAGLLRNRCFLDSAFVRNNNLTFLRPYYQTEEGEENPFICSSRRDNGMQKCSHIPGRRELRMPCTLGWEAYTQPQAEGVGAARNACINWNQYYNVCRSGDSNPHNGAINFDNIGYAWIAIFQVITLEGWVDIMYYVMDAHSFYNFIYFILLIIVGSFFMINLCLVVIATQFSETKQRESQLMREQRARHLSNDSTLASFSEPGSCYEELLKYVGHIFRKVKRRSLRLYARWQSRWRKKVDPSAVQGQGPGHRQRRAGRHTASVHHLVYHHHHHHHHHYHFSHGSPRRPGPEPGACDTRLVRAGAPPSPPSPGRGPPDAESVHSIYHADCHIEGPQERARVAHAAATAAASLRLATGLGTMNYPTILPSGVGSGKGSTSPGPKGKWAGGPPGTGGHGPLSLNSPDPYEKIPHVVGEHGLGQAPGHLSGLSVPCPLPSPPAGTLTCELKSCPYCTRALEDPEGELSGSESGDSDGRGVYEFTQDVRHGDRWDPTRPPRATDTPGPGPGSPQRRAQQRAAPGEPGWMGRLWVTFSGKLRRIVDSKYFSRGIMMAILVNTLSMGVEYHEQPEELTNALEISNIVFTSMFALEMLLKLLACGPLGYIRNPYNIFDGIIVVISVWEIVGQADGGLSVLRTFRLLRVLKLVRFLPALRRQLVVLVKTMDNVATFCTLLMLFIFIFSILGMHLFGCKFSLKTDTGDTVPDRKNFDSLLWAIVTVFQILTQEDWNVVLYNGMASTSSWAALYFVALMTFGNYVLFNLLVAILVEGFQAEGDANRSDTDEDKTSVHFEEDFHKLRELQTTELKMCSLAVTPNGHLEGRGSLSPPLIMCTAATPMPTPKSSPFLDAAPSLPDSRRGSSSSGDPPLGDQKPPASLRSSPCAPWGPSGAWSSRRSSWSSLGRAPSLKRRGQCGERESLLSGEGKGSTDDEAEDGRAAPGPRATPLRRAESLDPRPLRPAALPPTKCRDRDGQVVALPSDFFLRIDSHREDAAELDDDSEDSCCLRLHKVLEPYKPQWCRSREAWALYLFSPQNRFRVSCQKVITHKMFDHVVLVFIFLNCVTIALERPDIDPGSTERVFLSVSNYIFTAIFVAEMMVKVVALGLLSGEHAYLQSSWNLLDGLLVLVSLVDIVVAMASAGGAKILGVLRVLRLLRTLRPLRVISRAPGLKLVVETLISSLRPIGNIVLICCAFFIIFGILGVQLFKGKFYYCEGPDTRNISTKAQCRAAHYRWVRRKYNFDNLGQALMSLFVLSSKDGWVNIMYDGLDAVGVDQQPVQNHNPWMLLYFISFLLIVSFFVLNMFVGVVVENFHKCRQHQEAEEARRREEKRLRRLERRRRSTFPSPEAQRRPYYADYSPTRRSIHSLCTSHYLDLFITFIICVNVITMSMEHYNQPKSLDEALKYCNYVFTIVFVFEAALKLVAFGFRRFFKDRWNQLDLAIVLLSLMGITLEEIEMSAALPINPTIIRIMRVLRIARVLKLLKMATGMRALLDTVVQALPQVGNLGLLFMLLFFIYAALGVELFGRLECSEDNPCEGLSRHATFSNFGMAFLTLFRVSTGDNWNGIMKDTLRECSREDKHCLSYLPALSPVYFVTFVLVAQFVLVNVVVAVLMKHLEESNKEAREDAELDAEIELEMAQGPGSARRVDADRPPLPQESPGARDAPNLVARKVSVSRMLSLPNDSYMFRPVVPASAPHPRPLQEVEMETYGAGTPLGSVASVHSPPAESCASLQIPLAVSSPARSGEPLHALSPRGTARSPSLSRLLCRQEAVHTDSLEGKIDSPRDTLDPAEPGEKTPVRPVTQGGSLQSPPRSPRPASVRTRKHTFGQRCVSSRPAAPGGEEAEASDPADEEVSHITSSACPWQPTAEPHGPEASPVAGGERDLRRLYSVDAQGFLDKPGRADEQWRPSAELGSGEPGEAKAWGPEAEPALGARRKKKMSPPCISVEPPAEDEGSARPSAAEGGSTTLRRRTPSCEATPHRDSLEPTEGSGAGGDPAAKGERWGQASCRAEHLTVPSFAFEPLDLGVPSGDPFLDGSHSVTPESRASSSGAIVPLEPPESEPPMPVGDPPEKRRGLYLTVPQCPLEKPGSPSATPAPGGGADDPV
Heat shock cognate 71 kDa protein, sequence (P11142 whole entry): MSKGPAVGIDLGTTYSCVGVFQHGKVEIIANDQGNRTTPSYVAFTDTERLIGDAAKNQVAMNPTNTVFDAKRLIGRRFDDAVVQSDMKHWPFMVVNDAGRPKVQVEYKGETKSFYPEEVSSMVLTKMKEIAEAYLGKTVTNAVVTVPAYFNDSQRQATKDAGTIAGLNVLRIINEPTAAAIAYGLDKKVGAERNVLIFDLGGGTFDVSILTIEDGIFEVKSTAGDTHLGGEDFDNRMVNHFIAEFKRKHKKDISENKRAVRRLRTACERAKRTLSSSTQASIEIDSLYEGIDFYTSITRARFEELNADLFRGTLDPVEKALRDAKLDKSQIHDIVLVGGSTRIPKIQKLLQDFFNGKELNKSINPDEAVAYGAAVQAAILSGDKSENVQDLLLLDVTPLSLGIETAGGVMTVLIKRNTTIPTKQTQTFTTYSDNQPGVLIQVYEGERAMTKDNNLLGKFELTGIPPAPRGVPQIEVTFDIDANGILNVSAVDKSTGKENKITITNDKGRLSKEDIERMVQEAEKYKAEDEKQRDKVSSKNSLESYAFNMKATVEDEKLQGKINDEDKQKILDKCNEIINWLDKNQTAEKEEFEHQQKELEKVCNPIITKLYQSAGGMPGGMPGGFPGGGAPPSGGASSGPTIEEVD
X-box-binding protein 1, sequence (P17861 whole entry): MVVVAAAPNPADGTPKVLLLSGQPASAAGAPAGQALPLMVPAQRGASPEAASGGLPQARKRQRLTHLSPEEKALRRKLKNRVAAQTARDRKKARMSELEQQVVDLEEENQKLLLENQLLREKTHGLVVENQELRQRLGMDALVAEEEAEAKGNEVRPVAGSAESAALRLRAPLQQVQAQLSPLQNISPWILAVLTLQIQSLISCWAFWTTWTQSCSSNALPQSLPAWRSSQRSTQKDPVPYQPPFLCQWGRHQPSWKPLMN
Paired box protein Pax-8, sequence (Q06710 whole entry): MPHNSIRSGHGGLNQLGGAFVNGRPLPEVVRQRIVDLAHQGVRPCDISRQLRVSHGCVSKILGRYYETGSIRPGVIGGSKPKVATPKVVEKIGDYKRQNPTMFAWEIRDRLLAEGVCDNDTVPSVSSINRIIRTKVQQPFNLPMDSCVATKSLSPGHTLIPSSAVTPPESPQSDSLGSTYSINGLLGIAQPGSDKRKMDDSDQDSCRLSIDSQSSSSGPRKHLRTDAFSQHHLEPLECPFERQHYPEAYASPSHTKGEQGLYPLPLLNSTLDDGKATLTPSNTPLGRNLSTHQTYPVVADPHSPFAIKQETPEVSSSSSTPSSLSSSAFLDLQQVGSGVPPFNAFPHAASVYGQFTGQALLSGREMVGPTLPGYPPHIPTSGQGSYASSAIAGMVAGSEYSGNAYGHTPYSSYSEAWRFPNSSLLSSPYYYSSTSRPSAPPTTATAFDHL

One may read the EC50 as the concentration giving half of the maximal effect. As to `CC(C)Cc1cc(C(=O)NCc2cccs2)no1`, the EC50 in experiment [1] and in experiment [2] was > 55.7 µM (not active) throughout.
By IC50 is commonly meant the midpoint of a concentration-inhibition curve. Broadly, the AC50 is the concentration giving half of the maximal activity seen. Consider `C[C@H](NC(=O)c1ccco1)C(=O)Nc1cccc([N+](=O)[O-])c1`, for which the IC50 in [3] and in experiment [4] was > 100 µM (inactive) in each case. Moreover, the AC50 on Paired box protein Pax-8 is 59.2 µM (active).
With `O=c1c2cccc(Cl)c2nc2n1Cc1ccccc1-2`, the EC50 in experiment [5] is 23.4 µM (active); in [6], 64.2 µM (active); with H4, > 120 µM (not active). The IC50 in experiment [7] is 27.4 µM (active).
On to `CC(C)Cn1c2c(c(=O)[nH]c1=O)C(C(F)(F)F)(C(F)(F)F)NC(CCC1CCCCC1)=N2`, for which the “Absolute IC50 (XBP1)” value on X-box-binding protein 1 was found to be 10 µM.
Turning to `CSc1nc2c(c(=O)[nH]c(=O)n2C)n1Cc1ccc(Cl)cc1`, the IC50 in [7] is 65.2 µM (active).
Turning to `Cn1cccc1Cc1nnc(SCC(=O)Nc2ccc(F)cc2F)n1-c1ccc(F)cc1`, the EC50 in experiment [8] was 4.6 µM (active).
Regarding `Oc1[nH]c2ccccc2c1N=Nc1ccccc1F`, the EC50 was 4.39 µM (active) in experiment [5]; 8.29 µM (active) in experiment [6]; > 120 µM (not active) in the experiment on H4; > 99 µM (inactive) in experiment [9]; 31.7 µM (inactive) in [10]; > 67.6 µM (inactive) in experiment [11]. The AC50 in the experiment on HeLa is 100 µM (active).
On to `NS(=O)(=O)c1ccc2c(c1)C1C=CCC1C(C(=O)O)N2` (stereo unspecified), for which the IC50 is 47.3 µM (active) in [12]; 62.2 µM (active) in experiment [13]; > 100 µM (not active) in experiment [14]; 1.97 µM (active) in experiment [15]; > 100 µM (inactive) in [16]; > 100 µM (inactive) in experiment [17].
In the case of `CC(C)c1ccc(O)c(NC(=S)NC(=O)c2ccc3c(c2)OCO3)c1`, the IC50 at Beta-galactosidase was > 66.6 µM (inactive).
On to `CC(C)COC(=O)c1ccc2c(c1)C1C=CCC1C(C(=O)O)N2` (stereo unspecified), for which the IC50 in experiment [12] was 44.8 µM (active); in experiment [13], 87.3 µM (active); in [14] it was 164 µM (active); in experiment [15], 32.5 µM (active); in experiment [16] it was 48.2 µM (active); in experiment [17], 55.8 µM (active).
Regarding `C[C@@H](C(=O)Nc1ccc2ccccc2c1)[C@@H]1C[C@@]1(C)[C@@H](NC(=O)c1ccccc1)c1ccccc1`, in experiment [8], the EC50 was 2.95 µM (active).
Take `Cc1ccc(-c2cc(N)n(-c3ccc(F)cc3)n2)cc1`: the EC50 in [1] is > 55.7 µM (not active); in “cells”, > 350 µM (not active); in experiment [2] it was > 55.7 µM (not active).

These data come from ChEMBL document CHEMBL1201862, “PubChem BioAssay data set” (2004).
